Like-named read-outs stand apart in the source and are kept apart here.
What was measured:
SW48 cells = experiment: Proliferation assay SW48 (CellTiterGlo, 96 hours)
Description: The WRN-knockdown insensitive colon carcinoma cell line DLD-1 (RRID: CVCL_0248) was obtained from the Korean Cell Line Bank (KCLB), and used to generate a derivative in which the endogenous WRN gene copies were knocked out by CRISPR-mediated editing using standard CRISPR methods. The resulting cell line, DLD1-WRN—KO, was used to assess potential off-target compound effects.
All cells were maintained at 37° C. in a humidified 5% CO2 incubator.
For data analysis, the assay background signal that was determined in wells containing medium, but no cells, was subtracted from all other data points prior to further calculations. The extent of growth inhibition and potential cell kill was assessed by comparing the ATP levels (measured using CellTiterGlo, Promega) in compound-treated cells with those present at the time of compound addition. […] 100%, 0% and −100% signify absence of growth inhibition, growth stasis, and complete cell kill, respectively. Compound concentrations leading to half-maximal growth inhibition (G150) and residual cell viability at the highest tested compound concentration (Data (cmax), expressed in percent) were routinely calculated. Data analysis can also be carried out using commercially available software designed to derive IC50 values using 4-parameter fits (e.g. GraphPad Prism, XL fit). The reported GI50 values are the geometrical means of at least 2 independent replicates.

DLD1-WRN-KO cells = experiment: Proliferation assay DLD1-WRN-KO (CellTiterGlo, 96 hours; off-target effects); conditions: read-out: Proliferation Assay DLD1-WRN-KO (GI50)
WRN helicase = WRN helicase (Homo sapiens (Human), UniProt Q14191); experiment: In vitro enzymatic activity assay on WRN helicase (DNA dependent ATPase assay, ADP-Glo); assay type: biochemical; conditions: geometric means of at least 2 determinations; read-out: WRN ATPase Activity (IC50)
Chain of WRN helicase (Q14191 517-1238): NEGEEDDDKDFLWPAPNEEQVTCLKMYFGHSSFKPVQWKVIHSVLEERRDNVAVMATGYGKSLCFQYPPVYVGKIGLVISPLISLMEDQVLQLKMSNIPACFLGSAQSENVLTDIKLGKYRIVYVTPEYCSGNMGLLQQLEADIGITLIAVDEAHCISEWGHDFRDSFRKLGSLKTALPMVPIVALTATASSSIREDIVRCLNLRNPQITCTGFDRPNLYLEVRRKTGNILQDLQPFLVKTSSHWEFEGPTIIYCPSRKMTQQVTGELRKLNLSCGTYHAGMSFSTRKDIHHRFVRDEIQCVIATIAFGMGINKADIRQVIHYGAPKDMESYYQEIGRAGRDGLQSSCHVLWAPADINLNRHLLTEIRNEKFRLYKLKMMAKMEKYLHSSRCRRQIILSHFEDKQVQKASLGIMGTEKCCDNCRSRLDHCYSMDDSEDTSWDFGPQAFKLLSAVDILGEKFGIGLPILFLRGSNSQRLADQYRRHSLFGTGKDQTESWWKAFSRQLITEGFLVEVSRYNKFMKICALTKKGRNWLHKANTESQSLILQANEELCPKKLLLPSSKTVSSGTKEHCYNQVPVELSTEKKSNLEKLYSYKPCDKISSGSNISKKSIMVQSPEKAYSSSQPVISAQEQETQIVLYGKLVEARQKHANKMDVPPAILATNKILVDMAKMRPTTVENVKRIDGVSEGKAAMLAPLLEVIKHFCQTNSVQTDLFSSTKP
Outline: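 DNA-dependent ATPase activity was measured by ADP-Glo luminescent ADP detection after a 30-min room-temperature reaction. The reaction contained 10 nM WRN (residues N517-P1238), 0.2 nM FLAP26 and 300 µM ATP at pH 7.5 with 2 mM MgCl2. Compounds were tested as 10-point half-log series in duplicate; IC50 values are geometric means from at least two independent experiments.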

[1] = Homo sapiens, SW48, read-out: Proliferation Assay SW48 (GI50)
[2] = read-out: Proliferation Assay SW48 (GI50), SW48 cell line, geometric means of at least 2 determinations
[3] = DLD1-WRN-KO cell line, geometric means of at least 2 determinations

Row | GI50 (SW48 cells; [1]) | GI50 (DLD1-WRN-KO cells; Homo sapiens) | IC50 (WRN helicase) | GI50 (SW48 cells; [2]) | GI50 (DLD1-WRN-KO cells; [3]) | SMILES
1 | 270 nM | > 10000 nM | 130 nM | – | – | CCc1c(N2CCN(C(=O)c3ncccc3O)CC2)c(=O)n2nc(C3=COCCO3)nc2n1CC(=O)Nc1ccc(C(F)(F)F)nc1Cl [Example 27, N-(2-chloro-6-(trifluoromethyl)pyridin-3-yl)-2-(2-(5,6-dihydro-1,4-dioxin-2-yl)-5-ethyl-6-(4-(3-hydroxypicolinoyl)piperazin-1-yl)-7-oxo-[1,2,4]triazolo[1,5-a]pyrimidin-4(7H)-yl)acetamide]
2 | 210 nM | > 10000 nM | 80 nM | – | – | CCc1c(N2CCN(C(=O)c3ncccc3O)CC2)c(=O)n2nc(N3CCOCC3)nc2n1CC(=O)Nc1ccc(C(F)(F)F)cc1C [Example 8, 2-(5-ethyl-6-(4-(3-hydroxypicolinoyl)piperazin-1-yl)-2-morpholino-7-oxo-[1,2,4]triazolo[1,5-a]pyrimidin-4(7H)-yl)-N-(2-methyl-4-(trifluoromethyl)phenyl)acetamide]
3 | 160 nM | 5200 nM | 30 nM | – | – | CCc1c(N2CCN(C(=O)c3ncccc3O)CC2)c(=O)n2nc(N3CCCC(F)C3)nc2n1CC(=O)Nc1cc(Cl)c(C(F)(F)F)cc1C (racemic) [Example 13, rac-N-(5-chloro-2-methyl-4-(trifluoromethyl)phenyl)-2-(5-ethyl-2-(3-fluoropiperidin-1-yl)-6-(4-(3-hydroxypicolinoyl)piperazin-1-yl)-7-oxo-[1,2,4]triazolo[1,5-a]pyrimidin-4(7H)-yl)acetamide]
4 | 260 nM | > 10000 nM | 90 nM | – | – | CCc1c(N2CCN(C(=O)c3ncccc3O)CC2)c(=O)n2nc(N3CCC[C@H](F)C3)nc2n1CC(=O)Nc1ccc(C(F)(F)F)cc1C [Example 14b, (S)-2-(5-ethyl-2-(3-fluoropiperidin-1-yl)-6-(4-(3-hydroxypicolinoyl)piperazin-1-yl)-7-oxo-[1,2,4]triazolo[1,5-a]pyrimidin-4(7H)-yl)-N-(2-methyl-4-(trifluoromethyl)phenyl)acetamide]
5 | – | – | 110 nM | 40 nM | > 10000 nM | CCc1c(N2CCN(C(=O)c3nccc(Cl)c3O)CC2)c(=O)n2nc(C3=CC[C@H](OC)CC3)nc2n1CC(=O)Nc1ccc(C(F)(F)F)nc1Cl (single isomer, unassigned) [Example 24a]
6 | 290 nM | 9900 nM | 250 nM | – | – | CCc1c(N2CCN(C(=O)c3ncccc3O)CC2)c(=O)n2nc(N3CCOCC3)nc2n1CC(=O)Nc1ccc(C(F)(F)F)nc1Cl [Example 10, N-(2-chloro-6-(trifluoromethyl)pyridin-3-yl)-2-(5-ethyl-6-(4-(3-hydroxypicolinoyl)piperazin-1-yl)-2-morpholino-7-oxo-[1,2,4]triazolo[1,5-a]pyrimidin-4(7H)-yl)acetamide]
7 | 480 nM | > 10000 nM | 140 nM | – | – | CCc1c(N2CCN(C(=O)c3ncccc3O)CC2)c(=O)n2nc(N3CCCC(F)C3)nc2n1CC(=O)Nc1ccc(C(F)(F)F)cc1C (racemic) [Example 14, rac-2-(5-ethyl-2-(3-fluoropiperidin-1-yl)-6-(4-(3-hydroxypicolinoyl)piperazin-1-yl)-7-oxo-[1,2,4]triazolo[1,5-a]pyrimidin-4(7H)-yl)-N-(2-methyl-4-(trifluoromethyl)phenyl)acetamide]
8 | 120 nM | > 10000 nM | 120 nM | – | – | CCc1c(N2CCN(C(=O)c3nc(C)cc(F)c3O)CC2)c(=O)n2nc(C3=CCOCC3)nc2n1CC(=O)Nc1ccc(C(F)(F)F)nc1Cl [Example 49, N-(2-chloro-6-(trifluoromethyl)pyridin-3-yl)-2-(2-(3,6-dihydro-2H-pyran-4-yl)-5-ethyl-6-(4-(4-fluoro-3-hydroxy-6-methylpicolinoyl)piperazin-1-yl)-7-oxo-[1,2,4]triazolo[1,5-a]pyrimidin-4(7H)-yl)acetamide]

The next lines start with the molecule.

Row | SMILES | GI50 (SW48 cells; [1]) | GI50 (DLD1-WRN-KO cells; Homo sapiens) | IC50 (WRN helicase) | GI50 (SW48 cells; [2]) | GI50 (DLD1-WRN-KO cells; [3])
9 | CCc1c(N2CCN(C(=O)c3nc(N4CCN(C)CC4)ncc3O)CC2)c(=O)n2nc(C3=CCOCC3)nc2n1CC(=O)Nc1ccc(C(F)(F)F)cc1C [Example 128, 2-(2-(3,6-dihydro-2H-pyran-4-yl)-5-ethyl-6-(4-(5-hydroxy-2-(4-methylpiperazin-1-yl)pyrimidine-4-carbonyl)piperazin-1-yl)-7-oxo-[1,2,4]triazolo[1,5-a]pyrimidin-4(7H)-yl)-N-(2-methyl-4-(trifluoromethyl)phenyl)acetamide] | 690 nM | > 10000 nM | 80 nM | – | –
10 | CCc1c(N2CCN(C(=O)c3nccc(Cl)c3O)CC2)c(=O)n2nc(C3=CCOCC3)nc2n1CC(=O)Nc1ccc(C(F)(F)F)cc1Cl [Example 39, 2-(6-(4-(4-chloro-3-hydroxypicolinoyl)piperazin-1-yl)-2-(3,6-dihydro-2H-pyran-4-yl)-5-ethyl-7-oxo-[1,2,4]triazolo[1,5-a]pyrimidin-4(7H)-yl)-N-(2-chloro-4-(trifluoromethyl)phenyl)acetamide] | 50 nM | > 10000 nM | 40 nM | – | –
11 | CCc1c(N2CCN(C(=O)c3nccc(Cl)c3O)CC2)c(=O)n2nc(C3=CCOCC3)nc2n1CC(=O)Nc1ccc(C(F)(F)F)c(F)c1C [Example 37, 2-(6-(4-(4-chloro-3-hydroxypicolinoyl)piperazin-1-yl)-2-(3,6-dihydro-2H-pyran-4-yl)-5-ethyl-7-oxo-[1,2,4]triazolo[1,5-a]pyrimidin-4(7H)-yl)-N-(3-fluoro-2-methyl-4-(trifluoromethyl)phenyl)acetamide] | 30 nM | > 10000 nM | 20 nM | – | –
12 | CCc1c(N2CCN(C(=O)c3nccc(F)c3O)CC2)c(=O)n2nc(C3=CCOCC3)nc2n1CC(=O)Nc1ccc(C(F)(F)F)cc1C [Example 63, 2-(2-(3,6-dihydro-2H-pyran-4-yl)-5-ethyl-6-(4-(4-fluoro-3-hydroxypicolinoyl)piperazin-1-yl)-7-oxo-[1,2,4]triazolo[1,5-a]pyrimidin-4(7H)-yl)-N-(2-methyl-4-(trifluoromethyl)phenyl)acetamide] | 50 nM | > 10000 nM | 110 nM | – | –
13 | CCc1c(N2CCN(C(=O)c3ncccc3O)CC2)c(=O)n2nc(C3=CC[C@H](OC)CC3)nc2n1CC(=O)Nc1ccc(C(F)(F)F)cc1 (single isomer, unassigned) [Example 81a, ((R)-2-(5-ethyl-6-(4-(3-hydroxypicolinoyl)piperazin-1-yl)-2-(4-methoxycyclohex-1-en-1-yl)-7-oxo-[1,2,4]triazolo[1,5-a]pyrimidin-4(7H)-yl)-N-(4-(trifluoromethyl)phenyl)acetamide or ((S)-2-(5-ethyl-6-(4-(3-hydroxypicolinoyl)piperazin-1-yl)-2-(4-methoxycyclohex-1-en-1-yl)-7-oxo-[1,2,4]triazolo[1,5-a]pyrimidin-4(7H)-yl)-N-(4-(trifluoromethyl)phenyl)acetamide] | – | – | 40 nM | 70 nM | > 10000 nM
14 | Cc1cc(C(F)(F)F)ccc1NC(=O)Cn1c(CCO)c(N2CCN(C(=O)c3ncccc3O)CC2)c(=O)n2nc(C3=CCOCC3)nc12 [Example 135, 2-(2-(3,6-dihydro-2H-pyran-4-yl)-5-(2-hydroxyethyl)-6-(4-(3-hydroxypicolinoyl)piperazin-1-yl)-7-oxo-[1,2,4]triazolo[1,5-a]pyrimidin-4(7H)-yl)-N-(2-methyl-4-(trifluoromethyl)phenyl)acetamide] | 280 nM | > 10000 nM | 130 nM | – | –
15 | CCc1c(N2CCN(C(=O)c3ncnc(C)c3O)CC2)c(=O)n2nc(C3=CCOCC3)nc2n1CC(=O)Nc1cc(F)c(C(F)(F)F)cc1C [Example 50, 2-(2-(3,6-dihydro-2H-pyran-4-yl)-5-ethyl-6-(4-(5-hydroxy-6-methylpyrimidine-4-carbonyl)piperazin-1-yl)-7-oxo-[1,2,4]triazolo[1,5-a]pyrimidin-4(7H)-yl)-N-(5-fluoro-2-methyl-4-(trifluoromethyl)phenyl)acetamide] | 50 nM | > 10000 nM | 30 nM | – | –
16 | CCc1c(N2CCN(C(=O)c3ncccc3O)CC2)c(=O)n2nc(N3CC4CC(C3)O4)nc2n1CC(=O)Nc1ccc(C(F)(F)F)cc1C [Example 21, 2-(2-(6-oxa-3-azabicyclo[3.1.1]heptan-3-yl)-5-ethyl-6-(4-(3-hydroxypicolinoyl)piperazin-1-yl)-7-oxo-[1,2,4]triazolo[1,5-a]pyrimidin-4(7H)-yl)-N-(2-methyl-4-(trifluoromethyl)phenyl)acetamide] | 1070 nM | > 10000 nM | 180 nM | – | –
17 | Cc1c(N2CCN(C(=O)c3ncccc3O)CC2)c(=O)n2nc(C3=CCOCC3)nc2n1CC(=O)Nc1ccc(C(F)(F)F)cc1 [Example 117, 2-(2-(3,6-dihydro-2H-pyran-4-yl)-6-(4-(3-hydroxypicolinoyl)piperazin-1-yl)-5-methyl-7-oxo-[1,2,4]triazolo[1,5-a]pyrimidin-4(7H)-yl)-N-(4-(trifluoromethyl)phenyl)acetamide] | 260 nM | > 10000 nM | 40 nM | – | –
18 | CCc1c(N2CCN(C(=O)c3ncnc(C)c3O)CC2)c(=O)n2nc(C3=CCOCC3)nc2n1CC(=O)Nc1ccc(C(F)(F)F)cc1Br [Example 108, N-(2-bromo-4-(trifluoromethyl)phenyl)-2-(2-(3,6-dihydro-2H-pyran-4-yl)-5-ethyl-6-(4-(5-hydroxy-6-methylpyrimidine-4-carbonyl)piperazin-1-yl)-7-oxo-[1,2,4]triazolo[1,5-a]pyrimidin-4(7H)-yl)acetamide] | 90 nM | > 10000 nM | 80 nM | – | –

From patent publication US11878973B2, “Bicyclic compounds and their uses” (NOVARTIS AG, priority 2021, dated 2024)
